Test results reported in US6825185B2, “Substituted aryl compounds as novel cyclooxygenase-2 selective inhibitors, compositions and methods of use” (NitroMed, Inc., priority 2000, dated 2004).

Experiments:
COX-1 [1] = biological target: T1, COX-1 (Homo sapiens, UniProt P23219); assay: Human COX-1 enzyme activity (COX Inhibitor Screening Assay, prostaglandin EIA); type: biochemical; design: purchased Cayman Chemical; conditions: test compound at 100 μM
Method: (§1) The human COX-1 and COX-2 enzyme activities and the measurement of the prostaglandin products synthesized were performed using the COX Inhibitor Screening Assay (Cayman Chemical, Ann Arbor, Mich.), which also contained the Prostaglandin Screening EIA Kit, used for prostaglandin quantification). The test compounds were dissolved at 50 times the highest final reaction concentration in DMSO or any other suitable solvent as stock solutions. These stock solutions were then diluted in the same solvent. Eight glass test tubes (13×100 mm) were placed in a 25° C. water bath. To each test tube was added 950 μL of reaction buffer (0.1 M Tris-HCl, pH 8.0, containing 5 mM EDTA, and 2 mM phenol), 10 μL of 100 µM heme solution, and 10 μL (5 units) of either human COX-1 or COX-2 enzyme and the resulting mixture was incubated for 2 minutes. Twenty μL of the solvent was added to one tube (100% initial activity or solvent control) and 20 μL of each dilution of the test compound was added to one tube each. Each tube was vortexed immediately after the addition. The enzyme was incubated with the inhibitor for 20 minutes at 25° C. The enzymatic reaction was then initiated by the addition of 10 μL of freshly prepared 10 mM arachidonic acid (neutralized with KOH), vortexed and then incubated for 2 minutes (or, in some cases as indicated, 30 seconds) at 37° C. The reaction was terminated by the addition of 50 μL of 1 M HCl, vortexed and placed at room temperature. One hundred μL of a saturated stannous chloride solution (50 mg/mL of 0.1 M HCl) was added and the reaction mixture was allowed to stand at room temperature for at least 5 minutes.
(§2) The prostaglandins (PG) produced in the reactions were assayed, after a 2,000-fold dilution, using the Prostaglandin Screening EIA Kit (Cayman Chemical, Ann Arbor, Mich.). The assay contains an antibody with broad specificity for all the prostaglandin families (PGF, PGE, PGD, and thromboxane B-type) synthesized in the COX-1/COX-2 reactions. The synthesized prostaglandin competes with a PG-tagged acetylcholine esterase tracer for binding to the PG antibody. Binding of synthesized PG lowers the colorimetric development of the Ellman's Reagent (computed as %B/B0). The actual amount of synthesized PG was interpolated from a standard curve using known amounts of supplied prostaglandin E2 (PGE2) (PGE2 concentration vs. %B/B0). The data generated were the mean±standard deviation of triplicate wells in the EIA for a single reaction at a given inhibitor concentration. A plot of % of control (i.e., the solvent control without inhibitor) vs. test compound inhibitor concentration for both isoenzymes was used to determine the IC50 's for COX-1 and COX-2 for that test compound, when IC50's were calculated. The % inhibition for COX-1 and COX-2 enzyme activity by the test compounds at the indicated concentrations are given in Table 1.

COX-2 [2] = biological target: T2, COX-2 (Homo sapiens, UniProt P35354); assay: Human COX-2 enzyme activity (COX Inhibitor Screening Assay, prostaglandin EIA); type: biochemical; design: purchased Cayman Chemical; conditions: test compound at 10 μM
T2 sequence (P35354 18-604): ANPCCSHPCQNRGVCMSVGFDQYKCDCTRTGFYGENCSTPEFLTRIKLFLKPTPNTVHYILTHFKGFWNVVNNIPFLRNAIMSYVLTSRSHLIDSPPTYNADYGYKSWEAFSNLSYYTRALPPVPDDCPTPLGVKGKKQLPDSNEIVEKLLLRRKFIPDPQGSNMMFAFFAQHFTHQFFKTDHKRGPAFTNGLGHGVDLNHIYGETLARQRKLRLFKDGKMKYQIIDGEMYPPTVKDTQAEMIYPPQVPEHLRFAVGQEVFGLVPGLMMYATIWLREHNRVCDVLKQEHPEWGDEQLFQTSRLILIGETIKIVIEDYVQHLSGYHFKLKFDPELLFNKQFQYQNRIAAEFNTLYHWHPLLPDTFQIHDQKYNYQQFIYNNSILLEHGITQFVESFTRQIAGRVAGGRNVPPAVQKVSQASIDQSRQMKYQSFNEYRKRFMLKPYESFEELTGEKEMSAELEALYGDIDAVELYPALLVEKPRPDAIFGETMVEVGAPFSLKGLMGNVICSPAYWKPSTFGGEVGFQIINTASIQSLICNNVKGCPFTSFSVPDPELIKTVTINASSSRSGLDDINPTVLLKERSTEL
Method: as §1
as §2, with “concentration.” for “concentration. A plot of % of control (i.e., the solvent control without inhibitor) vs. test compound inhibitor concentration for both isoenzymes was used to determine the IC50 's for COX-1 and COX-2 for that test compound, when IC50's were calculated. The % inhibition for COX-1 and COX-2 enzyme activity by the test compounds at the indicated concentrations are given in Table 1.”

COX-1 [3] = biological target: T1, COX-1; assay: COX-1 enzyme activity in human whole blood (A23187 stimulated, thromboxane B2 EIA); type: cell-based; design: Human blood (≈50 mL) from male or female donors who had not received any aspirin or NSAIDs for 14 days; endogenous in cells; host or cells: human whole blood from donors; conditions: test compound at 100 μM
Method: (§3) The assay for COX-1 and COX-2 enzyme activity, in the human whole blood was performed as described in Brideau et al., Inflamm Res., 45: 68-74 (1996)). Human blood (≈50 mL) from male or female donors who had not received any aspirin or NSAIDs for 14 days was collected at two local area blood donor centers and placed in polypropylene syringes containing sodium heparin (20 units per mL blood, final concentration). The blood was transported to the laboratory on ice packs and used within 1.5 hours of collection. Upon receipt in the laboratory, the blood was allowed to come to room temperature for 15 minutes prior to distribution in 1 mL aliquots per well of 24 well tissue culture plates. The plates were then placed on a gently rotating platform shaker in a 5% CO2 incubator at 37° C. for 15 minutes. Test compounds were dissolved in DMSO, at 1000 fold the final desired concentration, and further diluted, as indicated, in DMSO. One μL of each dilution of the test compound was added per well, in duplicate wells; wells not receiving test compound (e.g., basal, background or control wells) received 1 μL DMSO.
(§4) To induce COX-2, lipopolysaccharide (LPS) from E. coli (LPS, serotype 026:B6 or serotype 0127:B8, Sigma Chemical Co., St. Louis, Mo., Catalogue No. L3755 or L3129, respectively) was added at 10 μg/mL (2 μL of 5 mg/mL LPS in DMSO) to appropriate wells 15 minutes after the addition of the test compound. (Basal or background wells not incubated with LPS received 2 μL of DMSO.) For the stimulation of COX-1, the calcium ionophore, A23187 (free acid from Sigma Chemical Co., St. Louis, Mo., Catalogue No. C7522) was added at 25 μM (1 μL of 25 mM stock in DMSO) to separate wells 4.5 hours after the addition of the test compound. (Again, basal, background or control wells not stimulated with A23187 received 1 μL of DMSO.) At 5 hours after the addition of the test compound, all incubations were terminated by placement on ice and the addition of 2 mM EGTA (100 μL of 20 mM EGTA, tetrasodium, in PBS (phosphate buffered saline) without Ca^++ and Mg^++, pH 7.2)). The resulting solutions, were transferred by polyethylene transfer pipettes to 15 mL polypropylene centrifuge tubes and centrifuged at 1200 g for 10 minutes at 4° C. One hundred μL of plasma was removed from each blood sample and added to 1 mL of methanol in new 15 mL polypropylene centrifuge tubes, vortexed, and stored overnight at −20° C. The next day, the samples were centrifuged at 2000 g for 10 minutes at 4° C. and the supernatants transferred to glass tubes and evaporated to dryness. The samples were assayed for thromboxane B2 using EIA kits supplied by Cayman Chemical Co. (Ann Arbor, Mich., Catalogue No. 519031) in duplicate wells after reconstitution with EIA Buffer and appropriate dilution (2000 fold for COX-1 and 500 fold for Cox-2 samples).

COX-2 [4] = biological target: T2, COX-2; assay: COX-2 enzyme activity in human whole blood (LPS induced, thromboxane B2 EIA); type: cell-based; design: Human blood (≈50 mL) from male or female donors who had not received any aspirin or NSAIDs for 14 days; endogenous in cells; host or cells: human whole blood from donors, LPS-induced; conditions: test compound at 10 μM
Method: as §3, with “Human” for “The assay for COX-1 and COX-2 enzyme activity, in the human whole blood was performed as described in Brideau et al., Inflamm Res., 45: 68-74 (1996)). Human”
as §4, with “(Basal or background wells not incubated with LPS received 2 μL of DMSO.) For the stimulation of COX-1, the calcium ionophore, A23187 (free acid from Sigma Chemical Co., St. Louis, Mo., Catalogue No. C7522) was added at 25 μM (1 μL of 25 mM stock in DMSO) to separate wells 4.5 hours after the addition of the test compound.” left out, “dryness.” for “dryness. The samples were assayed for thromboxane B2 using EIA kits supplied by Cayman Chemical Co. (Ann Arbor, Mich., Catalogue No. 519031) in duplicate wells after reconstitution with EIA Buffer and appropriate dilution (2000 fold for COX-1 and 500 fold for Cox-2 samples).”

T1 sequence (P23219 24-599): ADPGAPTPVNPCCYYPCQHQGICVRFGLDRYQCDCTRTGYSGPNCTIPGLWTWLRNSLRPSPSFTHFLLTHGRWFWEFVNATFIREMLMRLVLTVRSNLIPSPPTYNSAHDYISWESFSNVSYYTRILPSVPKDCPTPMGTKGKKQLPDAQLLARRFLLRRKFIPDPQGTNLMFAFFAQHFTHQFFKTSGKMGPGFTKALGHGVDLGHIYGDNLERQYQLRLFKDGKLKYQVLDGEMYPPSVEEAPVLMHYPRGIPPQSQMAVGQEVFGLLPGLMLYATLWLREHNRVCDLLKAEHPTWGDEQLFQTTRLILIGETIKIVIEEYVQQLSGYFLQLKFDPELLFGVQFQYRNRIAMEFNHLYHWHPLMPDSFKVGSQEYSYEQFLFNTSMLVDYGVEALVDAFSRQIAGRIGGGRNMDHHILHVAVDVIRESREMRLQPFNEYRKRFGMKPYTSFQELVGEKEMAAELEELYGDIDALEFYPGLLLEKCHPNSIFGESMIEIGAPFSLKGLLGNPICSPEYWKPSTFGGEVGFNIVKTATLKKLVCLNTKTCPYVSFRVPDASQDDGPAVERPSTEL

melting point [°C]	inhibition at 100 µM (COX-1 [3]) [%]	inhibition at 10 µM (COX-2 [4]) [%]	SMILES	COX-1 Inhibition (% at 100 μM) (COX-1 [1]) [%]	COX-2 Inhibition (% at 10 μM) (COX-2 [2]) [%]	COX-1 Inhibition (% at 100 μM) (COX-1 [3]) [%]
–	–	–	CS(=O)(=O)c1ccc(-c2cc3c(cc2C(=O)c2cccnc2)OCO3)cc1 [Example 6d, 6-(4-(Methylsulfonyl)phenyl)(2H-benzo(d)1,3-dioxolan-5-yl) 3-pyridyl ketone]	20	20	–
–	–	–	CS(=O)(=O)c1ccc(-c2cc3c(cc2CN2CCCC(CO)C2)OCO3)cc1 (stereo not shown) [Example 8b, 1-(6-((3-(Hydroxymethyl)piperidyl)methyl)(2H-benzo(3,4-d)1,3-dioxolan-5-yl))-4-(methylsulfonyl)benzene]	0	30	–
–	–	–	CS(=O)(=O)c1ccc(-c2cc3c(cc2CN2CCCC(CO[N+](=O)[O-])C2)OCO3)cc1 (stereo not shown) [Example 8c, 4-(Methylsulfonyl)-1-(6-((3-((nitrooxy)methyl)piperidyl)methyl)(2H-benzo(3,4-d) 1,3-dioxolan-5-yl))benzene]	25	80	–
–	–	–	CS(=O)(=O)c1ccc(-c2cc3c(cc2CC2CCCC2)OCO3)cc1 [Example 10b, 4-(6-(Cyclopenthylmethyl)(2H-benzo(3,4-d)1,3-dioxolan-5-yl))-1-(methylsulfonyl)benzene]	20	70	–
–	–	–	CS(=O)(=O)c1ccc(-c2cc3c(cc2C=C2CCCCCC2)OCO3)cc1 [Example 11b, 4-(6-(Cycloheptylidenemethyl)(2H-benzo(3,4-d)1,3-dioxolan-5-yl))-1-(methylsulfonyl) benzene]	10	–	40
160 to 162	70	40	CS(=O)(=O)c1ccc(-c2cc3c(cc2Cc2cc(F)cc(F)c2)OCCO3)cc1 [Example 20, 1-(7-((3,5-Difluorophenyl)methyl)(2H, 3H-benzo(3,4-e)1,4-dioxin-6-yl))-4-(methylsulfonyl)benzene]	–	–	–
238 to 241	50	30	CS(=O)(=O)c1ccc(-c2cc3c(cc2Cc2cc(F)cc(F)c2)OC(C(N)=O)CO3)cc1 (stereo not shown) [Example 21, 7-((3,5-Difluorophenyl)methyl)-6-(4-(methylsulfonyl)phenyl)-2H, 3H-benzo(e)1,4-dioxin-2-carboxamide]	–	–	–
191 to 193	90	55	CS(=O)(=O)c1ccc(-c2cc3c(cc2C(=O)c2cc(F)cc(F)c2)OCCO3)cc1 [Example 22, 3,5-Difluorophenyl 7-(4-(methylsulfonyl)phenyl)(2H, 3H-benzo(e)1,4-dioxin-6-yl) ketone]	–	–	–
